Read-outs that look alike come from different tables or passages of the source. *1 amine or outer side, *2 acyl side, *3 side chain or, on linkers, in order; H or OH if unused. Where a SMILES comes first, the peptide text is derived from it. Bridges are numbered along the chain shown (N, C = ends). [ ]: non-standard residue; d: D form. The star is where a group is joined. ξ: configuration not given here. X160 = CC(=O)N1CC=C(c2ccc(Cl)cc2C[C@@H](C(=O)[*:2])N(C)[*:1])C(C)(C)C1; NMeAla(5-Cl-2-cPrO-3-pyridyl) = CN[C@@H](Cc1cc(Cl)cnc1OC1CC1)C(=O)O; NMe3Pal(2-OiBu,5-Cl) = CN[C@@H](Cc1cc(Cl)cnc1OCC(C)C)C(=O)O; NMehhhLys(Me) = CN([C@@H](CCCCCCCN(C)[*:3])C(=O)[*:2])[*:1]; NMe3Pal(2-OiPr,5-Cl) = CN[C@@H](Cc1cc(Cl)cnc1OC(C)C)C(=O)O; X211 = Cc1ncc(-c2ccc(Cl)cc2C[C@@H](C(=O)[*:2])N(C)[*:1])s1; X22 = CN([C@@H](Cc1cc(Cl)ccc1-c1cnn(C)c1)C(=O)[*:2])[*:1]; NMe(hhhLys) = CN([C@@H](CCCCCCCN[*:3])C(=O)[*:2])[*:1]; cBuCO(3,3-F2-1-CF3) = O=C(C1(C(F)(F)F)CC(F)(F)C1)*; NMePhe(2,5-Cl2) = CN[C@@H](Cc1cc(Cl)ccc1Cl)C(=O)O; X25 = CCOc1ncc(Cl)cc1C[C@@H](C(=O)[*:2])N(C)[*:1]; Pro(trans-4-F) = O=C(O)[C@@H]1C[C@@H](F)CN1; Gly(cPr) = N[C@H](C(=O)O)C1CC1; ξGly(cPr) = NC(C(=O)O)C1CC1
Legend:
CyclinB1/CDK1 = biological target: T1, CyclinB1/CDK1 (Homo sapiens, UniProt P14635); test: Fluorescence Polarization (FP) competitive binding assay, Cyclin B1/Cdk1;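 further: fluorescence polarization read after equilibration at room temperature, with IC50 taken from serially diluted dose-response curves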
T1 construct: purchased Eurofins, discovery 14-450

CyclinE1/CDK2 = biological target: T2, CyclinE1/CDK2 (Homo sapiens, UniProt P24864); test: Fluorescence Polarization (FP) competitive binding assay, Cyclin E1/Cdk2;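 further: readings taken after two-hour equilibration at room temperature in HEPES buffer with NaCl, DTT, NP-40 and BSA, IC50 fitted from eight-concentration serial dilution series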
T2 construct: purchased Eurofins, discovery 14-475

WI-38 cells = test: MTT proliferation assay, WI-38; type: cell-based; settings: 3 days compound exposure, 1:3 serial dilution starting at 10 μM;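 further: Eight- or ten-point dilution series, with exposure length chosen to span about three to four cell doublings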
NCI-H1048 cells = test: MTT proliferation assay, NCI-H1048; type: cell-based; settings: 5 days compound exposure, 1:3 serial dilution starting at 10 μM;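 further: Dose-response in 96-well plates over 8 or 10 concentration points, with exposure spanning 3-4 cell doublings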
OVCAR3 cells = test: MTT proliferation assay, OVCAR3; type: cell-based; settings: 5 days compound exposure, 1:3 serial dilution starting at 10 μM;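 further: compound given as an 8- or 10-point series, one day after plating, with exposure covering roughly 3-4 cell doublings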
CyclinA2/CDK2 = biological target: T3, CyclinA2/CDK2 (Homo sapiens, UniProt P20248); test: Fluorescence Polarization (FP) competitive binding assay, Cyclin A2/Cdk2; settings: 8 nM Cyclin A2/Cdk2, 2 nM FAM probe; average of 2-3 independent experiments; read-out: Cyclin A FP IC50;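 further: plates equilibrated two hours at room temperature before polarization reading, IC50 fitted from eight-concentration compound titration curves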
T3 construct: purchased CRELUX Protein Services

[1] = 10 nM Cyclin B1/Cdk1, 2 nM FAM probe; average of 2-3 independent experiments; read-out: Cyclin B FP IC50
[2] = 10 nM Cyclin E1/Cdk2, 2 nM FAM probe, average of 2-3 independent experiments, read-out: Cyclin E FP IC50
[3] = read-out: Cyclin B FP IC50; 10 nM Cyclin B1/Cdk1, 2 nM FAM probe; average of 2-3 independent experiments

Compound | IC50 (CyclinB1/CDK1; [1]) | IC50 (CyclinE1/CDK2; [2]) | GI50 (WI-38 cells) | GI50 (NCI-H1048 cells) | GI50 (OVCAR3 cells) | IC50 (CyclinA2/CDK2) | IC50 (CyclinB1/CDK1; [3]) | IC50 (CyclinE1/CDK2)
CC(C)C[C@@H]1NC(=O)[C@@H](N(C)C(=O)[C@@H](NC(=O)[C@@H]2C[C@@H](F)CN2C(=O)C2(C(F)(F)F)CC(F)(F)C2)C2CC2)CC=CCCCCNC(=O)[C@H](Cc2cc(Cl)ccc2Cl)N(C)C1=O (single isomer, unassigned) [Example 6-P1] | 20 nM | 500 nM | 16400 nM | 50 nM | 90 nM | – | – | –
CC(C)C[C@@H]1NC(=O)[C@@H](N(C)C(=O)[C@@H](NC(=O)[C@@H]2C[C@@H](F)CN2C(=O)C2(C(F)(F)F)CC(F)(F)C2)C2CC2)CC=CCCCCNC(=O)[C@H](Cc2cc(Cl)ccc2Cl)N(C)C1=O (single isomer, unassigned) [Example 6-P2] | 20 nM | 240 nM | 15600 nM | 40 nM | 70 nM | – | – | –
CC(C)C[C@@H]1NC(=O)[C@@H](N(C)C(=O)[C@@H](NC(=O)[C@@H]2C[C@@H](F)CN2C(=O)C2(C(F)(F)F)CC(F)(F)C2)C2CC2)CC=CCCCCNC(=O)[C@H](Cc2cc(Cl)ccc2C2=CCN(C)CC2)N(C)C1=O (single isomer, unassigned) [Example 56-P1] | 40 nM | – | 5760 nM | 470 nM | 1020 nM | 860 nM | – | –
CC(C)C[C@@H]1NC(=O)[C@@H](N(C)C(=O)[C@@H](NC(=O)[C@@H]2C[C@@H](F)CN2C(=O)C2(C(F)(F)F)CC(F)(F)C2)C2CC2)CC=CCCCCNC(=O)[C@H](Cc2cc(Cl)ccc2C2=CCN(C)CC2)N(C)C1=O (single isomer, unassigned) [Example 56-P2] | 30 nM | – | 3760 nM | 190 nM | 430 nM | 590 nM | – | –
CC(=O)N1[C@H]2CC[C@@H]1C=C(c1ccc(Cl)cc1C[C@H]1C(=O)N(C)CCCCCCC[C@H](N(C)C(=O)[C@@H](NC(=O)[C@@H]3C[C@@H](F)CN3C(=O)C3(C(F)(F)F)CC(F)(F)C3)C3CC3)C(=O)N[C@@H](CC(C)C)C(=O)N1C)C2 (single isomer, unassigned) [Example 57-P1] | 20 nM | 1410 nM | 13800 nM | 10 nM | 10 nM | 20 nM | – | –
CC(=O)N1[C@H]2CC[C@@H]1C=C(c1ccc(Cl)cc1C[C@H]1C(=O)N(C)CCCCCCC[C@H](N(C)C(=O)[C@@H](NC(=O)[C@@H]3C[C@@H](F)CN3C(=O)C3(C(F)(F)F)CC(F)(F)C3)C3CC3)C(=O)N[C@@H](CC(C)C)C(=O)N1C)C2 (single isomer, unassigned) [Example 57-P2] | 20 nM | 1310 nM | 16900 nM | 10 nM | 10 nM | 20 nM | – | –
CC(C)C[C@@H]1NC(=O)[C@@H](N(C)C(=O)[C@@H](NC(=O)[C@@H]2C[C@@H](F)CN2C(=O)C2(C(F)(F)F)CCC2)C2CC2)CC=CCCCCNC(=O)[C@H](Cc2cc(Cl)cnc2OC2CC2)N(C)C1=O (single isomer, unassigned) [Example 107-P1] | 20 nM | 540 nM | 5290 nM | 700 nM | 1010 nM | 250 nM | – | –
CC(C)C[C@@H]1NC(=O)[C@@H](N(C)C(=O)[C@@H](NC(=O)[C@@H]2C[C@@H](F)CN2C(=O)C2(C(F)(F)F)CCC2)C2CC2)CC=CCCCCNC(=O)[C@H](Cc2cc(Cl)cnc2OC(C)C)N(C)C1=O (single isomer, unassigned) [Example 136-P1] | 20 nM | 320 nM | 3960 nM | 830 nM | 1770 nM | 140 nM | – | –
CC(C)C[C@@H]1NC(=O)[C@@H](N(C)C(=O)[C@@H](NC(=O)[C@@H]2C[C@@H](F)CN2C(=O)C2(C(F)(F)F)CC3(CCC3)C2)C2CC2)CC=CCCCCN(C)C(=O)[C@H](Cc2cc(Cl)ccc2Cl)N(C)C1=O [Example 15] | 20 nM | 1040 nM | 7850 nM | 180 nM | 550 nM | – | – | –
CC(C)C[C@@H]1NC(=O)[C@@H](N(C)C(=O)[C@@H](NC(=O)[C@@H]2C[C@@H](F)CN2C(=O)C2(C(F)(F)F)CC(F)(F)C2)C2CC2)CCCCCCCN(C)C(=O)[C@H](Cc2cc(Cl)ccc2Cl)N(C)C1=O [Example 25] ({cBuCO(3,3-F2-1-CF3)}-[Pro(trans-4-F)][Gly(cPr)][NMehhhLys(Me)]L[NMePhe(2,5-Cl2)]; lactam 3-C) | 20 nM | 230 nM | 8070 nM | 30 nM | 40 nM | – | – | –
CC(C)C[C@@H]1NC(=O)[C@@H](N(C)C(=O)[C@@H](NC(=O)[C@@H]2C[C@@H](F)CN2C(=O)C2(C(F)(F)F)CC(F)(F)C2)C2CC2)CCCCCCCNC(=O)[C@H](Cc2cc(Cl)ccc2-c2cnn(C)c2)N(C)C1=O [Example 66] ({cBuCO(3,3-F2-1-CF3)}-[Pro(trans-4-F)][Gly(cPr)][NMe(hhhLys)]L[X22]; lactam 3-C) | – | – | 12900 nM | 10 nM | 10 nM | – | – | –
Cc1ncc(-c2ccc(Cl)cc2C[C@H]2C(=O)N(C)CCCCCCC[C@H](N(C)C(=O)[C@@H](NC(=O)[C@@H]3C[C@@H](F)CN3C(=O)C3(C(F)(F)F)CC(F)(F)C3)C3CC3)C(=O)N[C@@H](CC(C)C)C(=O)N2C)s1 [Example 75] ({cBuCO(3,3-F2-1-CF3)}-[Pro(trans-4-F)][Gly(cPr)][NMehhhLys(Me)]L[X211]; lactam 3-C) | 20 nM | 440 nM | 5890 nM | 10 nM | 20 nM | – | – | –
CC(C)C[C@@H]1NC(=O)[C@@H](N(C)C(=O)[C@@H](NC(=O)[C@@H]2C[C@@H](F)CN2C(=O)C2(C(F)(F)F)CC(F)(F)C2)C2CC2)CCCCCCCN(C)C(=O)[C@H](Cc2cc(Cl)cnc2OC2CC2)N(C)C1=O [Example 105] ({cBuCO(3,3-F2-1-CF3)}-[Pro(trans-4-F)][Gly(cPr)][NMehhhLys(Me)]L[NMeAla(5-Cl-2-cPrO-3-pyridyl)]; lactam 3-C) | – | – | 18800 nM | 20 nM | 30 nM | – | – | –
CC(C)C[C@@H]1NC(=O)[C@@H](N(C)C(=O)[C@@H](NC(=O)[C@@H]2C[C@@H](F)CN2C(=O)C2(C(F)(F)F)CC(F)(F)C2)C2CC2)CCCCCCCN(C)C(=O)[C@H](Cc2cc(Cl)cnc2OC(C)C)N(C)C1=O [Example 120] ({cBuCO(3,3-F2-1-CF3)}-[Pro(trans-4-F)][Gly(cPr)][NMehhhLys(Me)]L[NMe3Pal(2-OiPr,5-Cl)]; lactam 3-C) | 20 nM | 210 nM | 9280 nM | 100 nM | 130 nM | – | – | –
CCOc1ncc(Cl)cc1C[C@H]1C(=O)N(C)CCCCCCC[C@H](N(C)C(=O)[C@@H](NC(=O)[C@@H]2C[C@@H](F)CN2C(=O)C2(C(F)(F)F)CC(F)(F)C2)C2CC2)C(=O)N[C@@H](CC(C)C)C(=O)N1C [Example 225] ({cBuCO(3,3-F2-1-CF3)}-[Pro(trans-4-F)][Gly(cPr)][NMehhhLys(Me)]L[X25]; lactam 3-C) | – | – | 8530 nM | 20 nM | 30 nM | – | 20 nM | 190 nM
CC(C)COc1ncc(Cl)cc1C[C@H]1C(=O)N(C)CCCCCCC[C@H](N(C)C(=O)[C@@H](NC(=O)[C@@H]2C[C@@H](F)CN2C(=O)C2(C(F)(F)F)CC(F)(F)C2)C2CC2)C(=O)N[C@@H](CC(C)C)C(=O)N1C [Example 228] ({cBuCO(3,3-F2-1-CF3)}-[Pro(trans-4-F)][Gly(cPr)][NMehhhLys(Me)]L[NMe3Pal(2-OiBu,5-Cl)]; lactam 3-C) | – | – | 9540 nM | 60 nM | 80 nM | – | 20 nM | 250 nM
CC(=O)N1CC=C(c2ccc(Cl)cc2C[C@H]2C(=O)NCCCCCCC[C@H](N(C)C(=O)C(NC(=O)[C@@H]3C[C@@H](F)CN3C(=O)C3(C(F)(F)F)CC(F)(F)C3)C3CC3)C(=O)N[C@@H](CC(C)C)C(=O)N2C)C(C)(C)C1 (stereo partly drawn) [Example 277] ({cBuCO(3,3-F2-1-CF3)}-[Pro(trans-4-F)][ξGly(cPr)][NMe(hhhLys)]L[X160]; lactam 3-C) | 20 nM | – | 3820 nM | 330 nM | 360 nM | 600 nM | – | –
